# Patent US20230072860A1, “ISOXAZOLINE OXIME FORMATE COMPOUND, PREPARATION METHOD THEREFOR, HERBICIDAL COMPOSITION AND USE THEREOF” (QINGDAO KINGAGROOT CHEMICAL COMPOUND CO., LTD., priority 2020, published 2023)
# How the values were obtained:
# Assay in all cases: Experiment on weeding effect in post-emergence stage
# Assay type in all cases: in vivo
# Conditions in all cases: dose 15 g a.i./ha, fresh weight control rate level
# Abutilon theophrasti = tested on: Abutilon theophrasti
# From the text: (§1) Experiment on weeding effect in post-emergence stage:
# (§2) Monocotyledonous and dicotyledonous weed seeds (Descurainia sophia, Capsella bursa-pastoris, Abutilon theophrasti, Galium aparine, Stellaria media, Lithospermum arvense, Rorippa indica, Alopecurus aequalis, Alopecurus japonicus, Beckmannia syzigachne, Sclerochloa dura, Conyza Canadensis, Phleum paniculatum, Veronica didyma Tenore, Eleusine indica, Bromus japonicus, Aegilops tauschii, Phalaris arundinacea, Amaranthus retroflexus, Chenopodium album, Commelina communis, Sonchus arvensis, Convolvulus arvensis, Cirsium setosum, Solanum nigrum, Acalypha australis, Digitaria sanguinalis, Echinochloa crusgalli, Setaria viridis, Setaria glauca, Leptochloa chinensis, Monochoria vaginalis, Sagittaria trolia, Scirpus juncoides, Cyperus rotundus, Cyperus iria, Cyperus difformis, Elmbristylis, Portulaca oleracea, Xanthium sibiricum, Pharbitis nil) and major crop seeds (wheat, corn, rice, soybean, cotton, oilseed rape, millet, sorghum, potato, sesame, ricinus) were placed in plastic pots filled with soil, then covered with 0.5-2 cm of soil, allowed to grow in a good greenhouse environment. After 2 weeks of sowing, the test plants were treated in the 2-3 leaf stage. The tested compounds of the present invention were respectively dissolved in acetone, then added with Tween 80 and 1.5 liter/ha of emulsifiable concentrate of methyl oleate as synergist, diluted with a certain amount of water to obtain a solution with a certain concentration, and sprayed with a spray tower onto the plants. After the application, the plants were cultured for 3 weeks in the greenhouse, and then the experimental results of the weeding were counted. The doses of the used compounds were 500, 250, 125, 60, 15 g a.i./ha, and the averages were obtained by repeating for three times.
# Amaranthus retroflexus = tested on: Amaranthus retroflexus
# From the text: as §1, §2
# Digitaria sanguinalis = tested on: Digitaria sanguinalis
# From the text: as §1, §2
# Echinochloa crusgalli = tested on: Echinochloa crusgalli
# From the text: as §1, §2
# Eleusine indica = tested on: Eleusine indica
# From the text: as §1, §2
# Galium aparine = tested on: Galium aparine
# From the text: as §1, §2
# Leptochloa chinensis = tested on: Leptochloa chinensis
# From the text: as §1, §2
# Setaria viridis = tested on: Setaria viridis
# From the text: as §1, §2
# Veronica didyma Tenore = tested on: Veronica didyma Tenore
# From the text: as §1, §2
Structure (SMILES),"weeding effect in post-emergence stage, Abutilon theophrasti (level) (Abutilon theophrasti)","weeding effect in post-emergence stage, Amaranthus retroflexus (level) (Amaranthus retroflexus)","weeding effect in post-emergence stage, Digitaria sanguinalis (level) (Digitaria sanguinalis)","weeding effect in post-emergence stage, Echinochloa crusgalli (level) (Echinochloa crusgalli)","weeding effect in post-emergence stage, Eleusine indica (level) (Eleusine indica)","weeding effect in post-emergence stage, Galium aparine (level) (Galium aparine)","weeding effect in post-emergence stage, Leptochloa chinensis (level) (Leptochloa chinensis)","weeding effect in post-emergence stage, Setaria viridis (level) (Setaria viridis)","weeding effect in post-emergence stage, Veronica didyma Tenore (level) (Veronica didyma Tenore)"
COCC(C)=NOC(=O)C1(C)CC(c2cc(-n3c(=O)n(C)c(=S)n(C)c3=O)c(F)cc2Cl)=NO1 (mixture of isomers) [Compound 121],5 (Level 5: growth control rate is above 85%),5 (Level 5: growth control rate is above 85%),5 (Level 5: growth control rate is above 85%),5 (Level 5: growth control rate is above 85%),5 (Level 5: growth control rate is above 85%),5 (Level 5: growth control rate is above 85%),5 (Level 5: growth control rate is above 85%),5 (Level 5: growth control rate is above 85%),5 (Level 5: growth control rate is above 85%)
CC(C)=NOC(=O)C1(C)CC(c2nc(-n3c(=O)n(C)c(=S)n(C)c3=O)c(F)cc2Cl)=NO1 (racemic) [Compound 16],5 (Level 5: growth control rate is above 85%),5 (Level 5: growth control rate is above 85%),5 (Level 5: growth control rate is above 85%),5 (Level 5: growth control rate is above 85%),5 (Level 5: growth control rate is above 85%),5 (Level 5: growth control rate is above 85%),5 (Level 5: growth control rate is above 85%),5 (Level 5: growth control rate is above 85%),5 (Level 5: growth control rate is above 85%)
CCC(CC)=NOC(=O)C1(C)CC(c2cc(-n3c(=O)n(C)c(=S)n(C)c3=O)c(F)cc2Cl)=NO1 (racemic) [Compound 83],5 (Level 5: growth control rate is above 85%),5 (Level 5: growth control rate is above 85%),5 (Level 5: growth control rate is above 85%),5 (Level 5: growth control rate is above 85%),5 (Level 5: growth control rate is above 85%),5 (Level 5: growth control rate is above 85%),5 (Level 5: growth control rate is above 85%),5 (Level 5: growth control rate is above 85%),5 (Level 5: growth control rate is above 85%)
CC(C)=NOC(=O)C1(C)CC(c2cc(-n3c(=O)n(C)c(=S)n(C)c3=O)c(F)cc2Cl)=NO1 (stereo not drawn) [Compound 10],5 (Level 5: growth control rate is above 85%),5 (Level 5: growth control rate is above 85%),5 (Level 5: growth control rate is above 85%),5 (Level 5: growth control rate is above 85%),5 (Level 5: growth control rate is above 85%),5 (Level 5: growth control rate is above 85%),5 (Level 5: growth control rate is above 85%),5 (Level 5: growth control rate is above 85%),5 (Level 5: growth control rate is above 85%)
C/C=N/OC(=O)C1(C)CC(c2cc(-n3c(=O)n(C)c(=S)n(C)c3=S)c(F)cc2Cl)=NO1 (stereo not drawn) [Compound 54],5 (Level 5: growth control rate is above 85%),5 (Level 5: growth control rate is above 85%),5 (Level 5: growth control rate is above 85%),5 (Level 5: growth control rate is above 85%),5 (Level 5: growth control rate is above 85%),5 (Level 5: growth control rate is above 85%),5 (Level 5: growth control rate is above 85%),5 (Level 5: growth control rate is above 85%),5 (Level 5: growth control rate is above 85%)
CC(C)=NOC(=O)C1(C)CC(c2cc(-n3c(=O)n(C)c(=S)n(C)c3=S)c(F)cc2Cl)=NO1 (stereo not drawn) [Compound 56],5 (Level 5: growth control rate is above 85%),5 (Level 5: growth control rate is above 85%),5 (Level 5: growth control rate is above 85%),5 (Level 5: growth control rate is above 85%),5 (Level 5: growth control rate is above 85%),5 (Level 5: growth control rate is above 85%),5 (Level 5: growth control rate is above 85%),5 (Level 5: growth control rate is above 85%),5 (Level 5: growth control rate is above 85%)
CC/C(C)=N/OC(=O)C1(C)CC(c2cc(-n3c(=O)n(C)c(=S)n(C)c3=S)c(F)cc2Cl)=NO1 (stereo not drawn) [Compound 57],5 (Level 5: growth control rate is above 85%),5 (Level 5: growth control rate is above 85%),5 (Level 5: growth control rate is above 85%),5 (Level 5: growth control rate is above 85%),5 (Level 5: growth control rate is above 85%),5 (Level 5: growth control rate is above 85%),5 (Level 5: growth control rate is above 85%),5 (Level 5: growth control rate is above 85%),5 (Level 5: growth control rate is above 85%)
C/C(=N\OC(=O)C1(C)CC(c2cc(-n3c(=O)n(C)c(=S)n(C)c3=S)c(F)cc2Cl)=NO1)C(C)C (stereo not drawn) [Compound 58],5 (Level 5: growth control rate is above 85%),5 (Level 5: growth control rate is above 85%),5 (Level 5: growth control rate is above 85%),5 (Level 5: growth control rate is above 85%),5 (Level 5: growth control rate is above 85%),5 (Level 5: growth control rate is above 85%),5 (Level 5: growth control rate is above 85%),5 (Level 5: growth control rate is above 85%),5 (Level 5: growth control rate is above 85%)
C/C(=N\OC(=O)C1(C)CC(c2cc(-n3c(=O)n(C)c(=S)n(C)c3=S)c(F)cc2Cl)=NO1)C(C)(C)C (stereo not drawn) [Compound 59],5 (Level 5: growth control rate is above 85%),5 (Level 5: growth control rate is above 85%),5 (Level 5: growth control rate is above 85%),5 (Level 5: growth control rate is above 85%),5 (Level 5: growth control rate is above 85%),5 (Level 5: growth control rate is above 85%),5 (Level 5: growth control rate is above 85%),5 (Level 5: growth control rate is above 85%),5 (Level 5: growth control rate is above 85%)
